In patent publication US20230146675A1, “PYRIMIDO[5,4-d]PYRIMIDINE DERIVATIVES AS ENT INHIBITORS FOR THE TREATMENT OF CANCERS, AND COMBINATION THEREOF WITH ADENOSINE RECEPTOR ANTAGONISTS” (ITEOS BELGIUM SA, priority 2020, published 2023):

Molecular target: T1, human ENT1 (Homo sapiens, UniProt Q99808)
T1 sequence (Q99808 1-456): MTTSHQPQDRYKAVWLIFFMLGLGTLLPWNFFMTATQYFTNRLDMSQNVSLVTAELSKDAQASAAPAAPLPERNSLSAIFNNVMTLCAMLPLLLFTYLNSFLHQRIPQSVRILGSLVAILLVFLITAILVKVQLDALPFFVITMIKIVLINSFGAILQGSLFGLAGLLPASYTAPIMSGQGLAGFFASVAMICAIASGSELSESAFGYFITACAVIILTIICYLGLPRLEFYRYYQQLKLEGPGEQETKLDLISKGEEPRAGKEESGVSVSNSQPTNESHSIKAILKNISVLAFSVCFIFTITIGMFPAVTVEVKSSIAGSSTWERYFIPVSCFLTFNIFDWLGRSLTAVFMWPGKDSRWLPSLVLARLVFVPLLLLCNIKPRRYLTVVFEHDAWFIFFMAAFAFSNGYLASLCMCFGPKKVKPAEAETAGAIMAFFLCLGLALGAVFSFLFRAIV
Test: ENT1 binding assay (competition with Sahenta-DY647 on JAR cells)
Design: JAR cells expressing ENT1 were bought from ATCC; host or cells: JAR cells
Settings: binned IC50
How it was run: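 JAR cells were incubated with test compounds and the fluorescent ligand Sahenta-DY647 in competition. Plates were washed twice by centrifugation (4 min, 400 rcf, 4 °C). Binding potency was derived from the final fluorescence.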

Row | SMILES | IC50 [nM]
1 | COCCN(CCOC)c1nc(N2CCOC(C)C2)c2nc(N(CCOC)CCOC)nc(N3CCC(OC)CC3)c2n1 (centres unmarked) [Compound 87, N2,N2,N6,N6-tetrakis(2-methoxyethyl)-4-(4-methoxypiperidin-1-yl)-8-(2-methylmorpholino)pyrimido[5,4-d]pyrimidine-2,6-diamine] | 100 to 500
2 | COCCN(CCOC)c1nc(N2CCN(c3ncn(C)n3)CC2)c2nc(N(CCOC)CCOC)nc(N3CCC(OC)CC3)c2n1 [Compound 196, N2,N2,N6,N6-tetrakis(2-methoxyethyl)-4-(4-methoxypiperidin-1-yl)-8-(4-(1-methyl-1H-1,2,4-triazol-3-yl)piperazin-1-yl)pyrimido[5,4-d]pyrimidine-2,6-diamine] | 100 to 500
3 | COCCN(CCOC)c1nc(N2CCS(=O)(=O)CC2)c2nc(N(CCOC)CCOC)nc(N3CCN(c4ncn(C)n4)CC3)c2n1 [Compound 217, 4-(2,6-bis(bis(2-methoxyethyl)amino)-8-(4-(1-methyl-1H-1,2,4-triazol-3-yl)piperazin-1-yl)pyrimido[5,4-d]pyrimidin-4-yl)thiomorpholine 1,1-dioxide] | 100 to 500
4 | COCCN(CCOC)c1nc(N2CCC(OC)CC2)c2nc(N3CCc4[nH]cnc4C3)nc(N3CCN(C)C(=O)C3)c2n1 [Compound 290, 4-(6-(bis(2-methoxyethyl)amino)-8-(4-methoxypiperidin-1-yl)-2-(1,4,6,7-tetrahydro-5H-imidazo[4,5-c]pyridin-5-yl)pyrimido[5,4-d]pyrimidin-4-yl)-1-methylpiperazin-2-one] | 500 to 1000
5 | COCCN(CCOC)c1nc(N2CC(O)(C(F)(F)F)C2)c2nc(N(CCOC)CCOC)nc(N3CCn4ncnc4C3)c2n1 [Compound 193, 1-(2,6-bis(bis(2-methoxyethyl)amino)-8-(5,6-dihydro-[1,2,4]triazolo[1,5-a]pyrazin-7(8H)-yl)pyrimido[5,4-d]pyrimidin-4-yl)-3-(trifluoromethyl)azetidin-3-ol] | 100 to 500
6 | COCCN(CCOC)c1nc(N2CCC(OC)CC2)c2nc(N(CCOC)CCOC)nc(NCc3ccc(Cl)c(Cl)c3)c2n1 [Compound 137, N4-(3,4-dichlorobenzyl)-N2,N2,N6,N6-tetrakis(2-methoxyethyl)-8-(4-methoxypiperidin-1-yl)pyrimido[5,4-d]pyrimidine-2,4,6-triamine] | < 100
7 | CCCN(C)c1nc(N(CCOC)CCOC)nc2c(N3CCn4ncnc4C3)nc(N(CCOC)CCOC)nc12 [Compound 10, 8-(5,6-dihydro-[1,2,4]triazolo[1,5-a]pyrazin-7(8H)-yl)-N2,N2,N6,N6-tetrakis(2-methoxyethyl)-N4-methyl-N4-propylpyrimido[5,4-d]pyrimidine-2,4,6-triamine] | 100 to 500
8 | COCCN(CCOC)c1nc(N2CCN(c3nccs3)CC2)c2nc(N(CCOC)CCOC)nc(N3CCN(c4nccs4)CC3)c2n1 [Compound 1, N2,N2,N6,N6-tetrakis(2-methoxyethyl)-4,8-bis(4-(thiazol-2-yl)piperazin-1-yl)pyrimido[5,4-d]pyrimidine-2,6-diamine] | < 100
9 | COCCN(CCOC)c1nc(N2CCN(c3nc(C)no3)CC2)c2nc(N(CCOC)CCOC)nc(N3CCN(c4nc(C)no4)CC3)c2n1 [Compound 129, N2,N2,N6,N6-tetrakis(2-methoxyethyl)-4,8-bis(4-(3-methyl-1,2,4-oxadiazol-5-yl)piperazin-1-yl)pyrimido[5,4-d]pyrimidine-2,6-diamine] | 100 to 500
10 | COCCN(CCOC)c1nc(N2CCC(OC)CC2)c2nc(NCCn3cccn3)nc(N3CCC(OC)CC3)c2n1 [Compound 32, N2-(2-(1H-pyrazol-1-yl)ethyl)-N6,N6-bis(2-methoxyethyl)-4,8-bis(4-methoxypiperidin-1-yl)pyrimido[5,4-d]pyrimidine-2,6-diamine] | 500 to 1000
11 | COCCN(CCOC)c1nc(N2CCC(OC)CC2)c2nc(N(CCOC)CCOC)nc(N3CCC(O)CC3)c2n1 [Compound 71, 1-(2,6-bis(bis(2-methoxyethyl)amino)-8-(4-methoxypiperidin-1-yl)pyrimido[5,4-d]pyrimidin-4-yl)piperidin-4-ol] | 100 to 500
12 | COCCN(CCOC)c1nc(N2CCC(OC)CC2)c2nc(N(CCOC)CCOC)nc(OCc3cccc(C#N)c3)c2n1 [Compound 156, 3-(((2,6-bis(bis(2-methoxyethyl)amino)-8-(4-methoxypiperidin-1-yl)pyrimido[5,4-d]pyrimidin-4-yl)oxy)methyl)benzonitrile] | 100 to 500
13 | COCCN(CCOC)c1nc(N2CCC(OC)CC2)c2nc(N(CCOC)CCOC)nc(OCc3cncc(C#N)c3)c2n1 [Compound 158, 5-(((2,6-bis(bis(2-methoxyethyl)amino)-8-(4-methoxypiperidin-1-yl)pyrimido[5,4-d]pyrimidin-4-yl)oxy)methyl)nicotinonitrile] | 100 to 500
14 | COCCN(CCOC)c1nc(N2CCC(OC)CC2)c2nc(N(CCOC)CCOC)nc(NCC3CCOCC3)c2n1 [Compound 46, N2,N2,N6,N6-tetrakis(2-methoxyethyl)-8-(4-methoxypiperidin-1-yl)-N4-((tetrahydro-2H-pyran-4-yl)methyl)pyrimido[5,4-d]pyrimidine-2,4,6-triamine] | 100 to 500
15 | COCCN(CCOC)c1nc(N2CCN(c3ncn(C)n3)CC2)c2nc(N(CCOC)CCOC)nc(NCc3cccc(C#N)c3)c2n1 [Compound 224, 3-(((2,6-bis(bis(2-methoxyethyl)amino)-8-(4-(1-methyl-1H-1,2,4-triazol-3-yl)piperazin-1-yl)pyrimido[5,4-d]pyrimidin-4-yl)amino)methyl)benzonitrile] | < 100
16 | COCCOC1CCN(c2nc(N(CCOC)CCOC)nc3c(N4CCC(OC)CC4)nc(N(CCOC)CCOC)nc23)CC1 [Compound 202, 4-(4-(2-methoxyethoxy)piperidin-1-yl)-N2,N2,N6,N6-tetrakis(2-methoxyethyl)-8-(4-methoxypiperidin-1-yl)pyrimido[5,4-d]pyrimidine-2,6-diamine] | 500 to 1000
17 | COCCN(CCOC)c1nc(N2CCN(C)C(=O)C2)c2nc(N(CCOC)CCOC)nc(NCc3cccc(OC(F)(F)F)c3)c2n1 [Compound 210, 4-(2,6-bis(bis(2-methoxyethyl)amino)-8-((3-(trifluoromethoxy)benzyl)amino)pyrimido[5,4-d]pyrimidin-4-yl)-1-methylpiperazin-2-one] | < 100
18 | COCCN(CCOC)c1nc(N2CCN(C)C(=O)C2)c2nc(N3CCn4ccnc4C3)nc(N3CCC(OC)CC3)c2n1 [Compound 296, 4-(2-(bis(2-methoxyethyl)amino)-6-(5,6-dihydroimidazo[1,2-a]pyrazin-7(8H)-yl)-8-(4-methoxypiperidin-1-yl)pyrimido[5,4-d]pyrimidin-4-yl)-1-methylpiperazin-2-one] | 100 to 500
19 | COCCN(CCOC)c1nc(N2CCC(OC)CC2)c2nc(N3CCN(c4ncccc4N)CC3)nc(N3CCN(C)C(=O)C3)c2n1 [Compound 293, 4-(2-(4-(3-aminopyridin-2-yl)piperazin-1-yl)-6-(bis(2-methoxyethyl)amino)-8-(4-methoxypiperidin-1-yl)pyrimido[5,4-d]pyrimidin-4-yl)-1-methylpiperazin-2-one] | 100 to 500
20 | COCCN(CCOC)c1nc(N2CCC(OC)CC2)c2nc(N(CCOC)CCOC)nc(NCc3ccc(C)o3)c2n1 [Compound 161, N2,N2,N6,N6-tetrakis(2-methoxyethyl)-8-(4-methoxypiperidin-1-yl)-N4-((5-methylfuran-2-yl)methyl)pyrimido[5,4-d]pyrimidine-2,4,6-triamine] | 100 to 500
